Measured values: patent US4263280A, “Synergistic mixtures” (priority 1978, dated 1981)
Structures can show the parent of a compound that is named as a salt.

Tests used:
Escherichia coli 205 = assay: systemic infection in mice, survival, Escherichia coli 205; type: in vivo; conditions: fifth day
Method: (§1) The combination substances A and B are diluted in 1:3 to 1:3.3 steps such that the average concentration contains the respective amount of substance A and substance B corresponding to the ED50.
(§2) Female MF 2 mice weighing 18 to 22 g are divided at random into groups (n=20) and infected intraperitoneally with a standardised bacteria suspension which, according to strain, represents 5 to >20 LD50.
(§3) Immediately after the infection, and 3 hours later, the mice are treated in groups subcutaneously with dilutions of substances A and B as well as with combinations thereof. These combinations are prepared shortly before administration by mixing each dilution of substance A with each dilution of substance B. The survival rates are determined on the fifth day after the infection. The survival rates of mice which are determined with each of substances A and B alone are compared with those obtained with the combinations of these substances. A combination which has protected more animals from death than would be expected from the independent action of the substances, is designated as having synergistic action.
(§4) The survival rates, expressed as percentages of surviving animals, found in infections with a number of pure micro-organisms and in polyinfections is reported in Table 2 for cefsulodin sodium, mecillinam, mezlocillin, gentamicin and CGP 14 221/E, as well as for corresponding mixtures.

[1] = system: Escherichia coli 205 RTEM^+; assay: systemic infection in mice, survival, Escherichia coli 205 RTEM+; type: in vivo; conditions: fifth day
Method: as §1, §2, §3, §4

[2] = system: Klebsiella pneumoniae 329 + Escherichia coli 205; assay: systemic polyinfection in mice, survival, Klebsiella pneumoniae 329 + Escherichia coli 205; type: in vivo; conditions: fifth day
Method: as §1, §2, §3, §4

[3] = system: Klebsiella pneumoniae 327; assay: systemic infection in mice, survival, Klebsiella pneumoniae 327; type: in vivo; conditions: fifth day
Method: as §1, §2, §3, §4

[4] = system: Klebsiella pneumoniae 1136; assay: in vitro MIC, chessboard microdilution, Klebsiella pneumoniae 1136; type: cell-based; conditions: for MIC: Klebsiella pneumoniae, 1136, alone, 18 hours, 37° C., read-out: MIC, antibiotic alone
Method: (§5) The combination substances A and B are diluted in DST broth OXOID in chessboard arrangement with the aid of microtitre system in 1:2 steps. All the concentrations of substance A are combined with all the concentrations of substance B and then inoculated with a standardised bacteria suspension (final concentration about 10^4 bacilli/ml). After incubation for 18 hours at 37° C., the inhibition of the bacterial growth is determined. The inhibiting concentrations are converted by the method of Kerry et al. (J. Antimicrob. […] By way of example, a number of the MIC values for the action of cefsulodin sodium, mecillinam, mezlocillin and gentamicin alone against a number of micro-organisms, as well as the MIC values for a number of mixtures in which synergism occurs, are reported in Table 1.

Staphylococcus aureus = assay: in vitro MIC, chessboard microdilution, Staphylococcus aureus; type: cell-based; conditions: for MIC: Staphylococcus aureus, alone, 18 hours, 37° C., read-out: MIC, antibiotic alone
Method: as §5

[5] = system: Pseudomonas aeruginosa + Escherichia coli; assay: experimental pyelonephritis (polyinfection) in mice, Pseudomonas aeruginosa + Escherichia coli; type: in vivo; conditions: percentage of animals
Method: (§6) Mice are treated intravenously with 10 mg/kg of carrageenin. Seven days later they are infected with a standardised suspension of bacteria. […] Two days after the last treatment, the mice are sacrificed, dissected and examined for the number of germs in the kidneys.

[6] = system: Pseudomonas aeruginosa + Klebsiella pneumoniae; assay: experimental pyelonephritis (polyinfection) in mice, Pseudomonas aeruginosa + Klebsiella pneumoniae; type: in vivo; conditions: percentage of animals
Method: as §6

[7] = system: Pseudomonas aeruginosa 410; assay: in vitro MIC, chessboard microdilution, Pseudomonas aeruginosa 410; type: cell-based
Method: as §5

[8] = system: Pseudomonas aeruginosa 799A; assay: in vitro MIC, chessboard microdilution, Pseudomonas aeruginosa 799A; type: cell-based; conditions: for MIC: Pseudomonas aeruginosa, 799A, alone, 18 hours, 37° C., read-out: MIC, antibiotic alone
Method: as §5

[9] = system: anaerobei, for example Bacteroides; conditions: cited from earlier work
Escherichia coli 576 = assay: in vitro MIC, chessboard microdilution, Escherichia coli 576; type: cell-based
Method: as §5

Proteus mirabilis 1077 = assay: in vitro MIC, chessboard microdilution, Proteus mirabilis 1077; type: cell-based; conditions: for MIC: Proteus mirabilis, 1077, alone, 18 hours, 37° C., read-out: MIC, antibiotic alone
Method: as §5

[10] = system: enterobacteria, such as Escherichia coli and Klebsiella pneumoniae; conditions: cited from earlier work
Escherichia coli 12-44 = assay: in vitro MIC, chessboard microdilution, Escherichia coli 12-44; type: cell-based; conditions: for MIC: Escherichia coli, 1244, alone, 18 hours, 37° C., read-out: MIC, antibiotic alone
Method: as §5

Proteus rettgeri 1121 = assay: in vitro MIC, chessboard microdilution, Proteus rettgeri 1121; type: cell-based; conditions: for MIC: Providencia rettgeri, 1121, read-out: MIC, antibiotic alone
Method: as §5

Klebsiella pneumoniae 1 = assay: in vitro MIC, chessboard microdilution, Klebsiella pneumoniae 1; type: cell-based; conditions: for MIC: Klebsiella pneumoniae, 1, alone, 18 hours, 37° C., read-out: MIC, antibiotic alone
Method: as §5

[11] = system: Klebsiella pneumoniae 329; assay: systemic infection in mice, survival, Klebsiella pneumoniae 329; type: in vivo; conditions: fifth day
Method: as §1, §2, §3, §4

[12] = system: Kiebsiella pneumoniae 1132; assay: in vitro MIC, chessboard microdilution, Klebsiella pneumoniae 1132; type: cell-based; conditions: for MIC: Klebsiella pneumoniae, 1132, alone, 18 hours, 37° C., read-out: MIC, antibiotic alone
Method: as §5

[13] = system: Gram-negative cocci, Gram-positive cocci and bacteria, and especially against Pseudomonas strains; conditions: carbenicillin-sensitive and carbenicillin-resistant Pseudomonas; cited from earlier work
[14] = system: Pseudomonas aeruginosa 1140; assay: in vitro MIC, chessboard microdilution, Pseudomonas aeruginosa 1140; type: cell-based
Method: as §5

[15] = system: Pseudomonas aeruginosa G 121; assay: in vitro MIC, chessboard microdilution, Pseudomonas aeruginosa G 121; type: cell-based; conditions: for MIC: Pseudomonas aeruginosa, G121, alone, 18 hours, 37° C., read-out: MIC, antibiotic alone
Method: as §5

[16] = known β-lactamase inhibitors themselves; cited from earlier work
[17] = in combination with Mecillinam 0.25 mcg/ml
[18] = in combination with Gentamicin 0.25 mcg/ml
[19] = in combination with Cefsulodin-Na 12.5 mcg/ml

CN(C)CCn1nnnc1SCC1=C(C(=O)O)N2C(=O)[C@@H](NC(=O)Cc3csc(N)n3)[C@H]2SC1 [CGP 14221/E, 7[2(2-lmino-1,3-thiazolin-4-yl)acetamido3-[1(3-dimethylamino)-tetrazol-5-ylthio-methyl3-cephem-4-carboxylic acid hydrochloride]
surviving animals, antibiotic alone (Escherichia coli 205; 0.62 mg/kg s.c.): 0%
surviving animals, antibiotic alone (Escherichia coli 205; 2.5 mg/kg s.c.): 0%
surviving animals, antibiotic alone ([1]; 1.2 mg/kg s.c.): 10%
surviving animals, antibiotic alone ([2]; 20 mg/kg s.c.): 0%
surviving animals, antibiotic alone ([3]; 20 mg/kg s.c.): 0%
surviving animals, antibiotic alone ([3]; 40 mg/kg s.c.): 0%

NC(=O)c1cc[n+](CC2=C(C(=O)O)N3C(=O)[C@@H](NC(=O)[C@@H](c4ccccc4)S(=O)(=O)[O-])[C@H]3SC2)cc1 [Cefsulodin-Na, sodium salt of N-[7β-(α-sulfophenylacetamido)ceph-3-em-3-yl-methyl]-4'-carbamoylpyridinium-4-carboxylate]
MIC [4]: 50 µg/mL
MIC, antibiotic A in combination with B [4, 17]: 12.5 µg/mL
MIC (Staphylococcus aureus): 3.2 µg/mL
MIC, antibiotic A in combination with B (Staphylococcus aureus; in combination with Mezlocillin 1.6 mcg/ml): 0.2 µg/mL
Clearance of the kidneys from both micro-organisms, antibiotic alone ([5]; 25 mg/kg s.c.): 0%
Clearance of the kidneys from both micro-organisms, antibiotic alone ([6]; 25 mg/kg s.c.): 10%
MIC ([7]; Pseudomonas aeruginosa, 410, alone, 18 hours, 37° C., read-out: MIC, antibiotic alone): 2 µg/mL
MIC, antibiotic A in combination with B [7, 18]: 0.06 µg/mL
surviving animals, antibiotic alone (Escherichia coli 205; 25 mg/kg s.c.): 5%
surviving animals, antibiotic alone (Escherichia coli 205; 40 mg/kg s.c.): 10%
MIC [8]: 1 µg/mL
MIC, antibiotic A in combination with B ([8]; in combination with Mecillinam 32 mcg/ml): 0.25 µg/mL
antibiotic action against anaerobei [9]: relatively insignificant action
MIC (Escherichia coli 576; Escherichia coli, 576, alone, 18 hours, 37° C., read-out: MIC, antibiotic alone): 64 µg/mL
MIC, antibiotic A in combination with B (Escherichia coli 576; [18]): 32 µg/mL
MIC (Proteus mirabilis 1077): 50 µg/mL
MIC, antibiotic A in combination with B (Proteus mirabilis 1077; in combination with Mezlocillin 0.25 mcg/ml): 12.5 µg/mL
surviving animals, antibiotic alone ([1]; 40 mg/kg s.c.): 0%
antibiotic action against enterobacteria [10]: relatively insignificant action
MIC (Escherichia coli 12-44): 25 µg/mL
MIC, antibiotic A in combination with B (Escherichia coli 12-44; in combination with Mecillinam 0.12 mcg/ml): 12.5 µg/mL
MIC (Proteus rettgeri 1121; alone, 18 hours, 37° C.): 12.5 µg/mL
MIC, antibiotic A in combination with B (Proteus rettgeri 1121; in combination with Gentamicin 0.5 mcg/ml): 0.8 µg/mL
MIC, antibiotic A in combination with B (Proteus rettgeri 1121; in combination with Mecillinam 1.6 mcg/ml): 0.4 µg/mL
surviving animals, antibiotic alone ([2]; 100 mg/kg s.c.): 0%
MIC (Klebsiella pneumoniae 1): 50 µg/mL
MIC, antibiotic A in combination with B (Klebsiella pneumoniae 1; in combination with Mezlocillin 0.16 mcg/ml): 25 µg/mL
surviving animals, antibiotic alone ([3]; 50 mg/kg s.c.): 0%
surviving animals, antibiotic alone ([3]; 100 mg/kg s.c.): 0%
surviving animals, antibiotic alone ([11]; 40 mg/kg s.c.): 0%
surviving animals, antibiotic alone ([11]; 50 mg/kg s.c.): 0%
surviving animals, antibiotic alone ([11]; 80 mg/kg s.c.): 5%
MIC [12]: 25 µg/mL
MIC, antibiotic A in combination with B [12, 17]: 6.2 µg/mL
antibiotic action [13]: directed against Gram-negative cocci, Gram-positive cocci and bacteria, and especially against Pseudomonas strains, both carbenicillin-sensitive and carbenicillin-resistant
MIC ([14]; Pseudomonas aeruginosa, 1140, alone, 18 hours, 37° C., read-out: MIC, antibiotic alone): 8 µg/mL
MIC, antibiotic A in combination with B ([14]; in combination with Gentamicin 4 mcg/ml): 2 µg/mL
MIC [15]: 1.2 µg/mL
MIC, antibiotic A in combination with B ([15]; in combination with Mezlocillin 12.5 mcg/ml): 0.04 µg/mL

CC1(C)S[C@@H]2[C@H](/N=C/N3CCCCCC3)C(=O)N2[C@H]1C(=O)O [Mecillinam]
MIC [4]: 1 µg/mL
MIC, antibiotic B in combination with A [4, 19]: 0.25 µg/mL
surviving animals, antibiotic alone (Escherichia coli 205; 1 mg/kg s.c.): 0%
surviving animals, antibiotic alone (Escherichia coli 205; 2 mg/kg s.c.): 0%
MIC [8]: 1000 µg/mL
MIC, antibiotic B in combination with A ([8]; in combination with Cefsulodin-Na 0.25 mcg/ml): 32 µg/mL
MIC (Escherichia coli 12-44): 2 µg/mL
MIC, antibiotic B in combination with A (Escherichia coli 12-44; [19]): 0.12 µg/mL
MIC (Proteus rettgeri 1121; alone, 18 hours, 37° C.): 3.2 µg/mL
MIC, antibiotic B in combination with A (Proteus rettgeri 1121; in combination with Cefsulodin-Na 0.4 mcg/ml): 1.6 µg/mL
surviving animals, antibiotic alone ([11]; 300 mg/kg s.c.): 0%
MIC [12]: 1 µg/mL
MIC, antibiotic B in combination with A ([12]; in combination with Cefsulodin-Na 6.2 mcg/ml): 0.25 µg/mL

CC1(C)S[C@@H]2[C@H](NC(=O)[C@H](NC(=O)N3CCN(S(C)(=O)=O)C3=O)c3ccccc3)C(=O)N2[C@H]1C(=O)O [Mezlocillin]
MIC (Staphylococcus aureus): 3.2 µg/mL
MIC, antibiotic B in combination with A (Staphylococcus aureus; in combination with Cefsulodin-Na 0.2 mcg/ml): 1.6 µg/mL
surviving animals, antibiotic alone (Escherichia coli 205; 50 mg/kg s.c.): 0%
MIC (Proteus mirabilis 1077): 1 µg/mL
MIC, antibiotic B in combination with A (Proteus mirabilis 1077; [19]): 0.25 µg/mL
MIC (Klebsiella pneumoniae 1): 1.25 µg/mL
MIC, antibiotic B in combination with A (Klebsiella pneumoniae 1; in combination with Cefsulodin-Na 25 mcg/ml): 0.16 µg/mL
surviving animals, antibiotic alone ([11]; 300 mg/kg s.c.): 0%
MIC [15]: 25 µg/mL
MIC, antibiotic B in combination with A ([15]; in combination with Cefsulodin-Na 0.04 mcg/ml): 12.5 µg/mL

O=C(O)[C@H]1/C(=C/CO)O[C@@H]2CC(=O)N21 [clavulanic acid]
antibiotic action [16]: insignificant antibiotic action

CC1(C)[C@H](C(=O)O)N2C(=O)C[C@H]2S1(=O)=O [penicillanic acid 4,4-dioxide]
antibiotic action [16]: insignificant antibiotic action

Gentamicin
Clearance of the kidneys from both micro-organisms, antibiotic alone ([5]; 1 mg/kg s.c.): 0%
Clearance of the kidneys from both micro-organisms, antibiotic alone ([6]; 0.5 mg/kg s.c.): 0%
Clearance of the kidneys from both micro-organisms, antibiotic alone ([6]; 2.5 mg/kg s.c.): 40%
MIC, antibiotic alone ([7]; alone, 18 hours, 37° C.): 0.5 µg/mL
MIC, antibiotic B in combination with A ([7]; in combination with Cefsulodin-Na 0.06 mcg/ml): 0.25 µg/mL
MIC, antibiotic alone (Escherichia coli 576; alone, 18 hours, 37° C.): 2 µg/mL
MIC, antibiotic B in combination with A (Escherichia coli 576; in combination with Cefsulodin-Na 32 mcg/ml): 0.25 µg/mL
MIC, antibiotic alone (Proteus rettgeri 1121; alone, 18 hours, 37° C.): 1 µg/mL
MIC, antibiotic B in combination with A (Proteus rettgeri 1121; in combination with Cefsulodin-Na 0.8 mcg/ml): 0.5 µg/mL
surviving animals, antibiotic alone ([11]; 0.2 mg/kg s.c.): 30%
MIC, antibiotic alone ([14]; alone, 18 hours, 37° C.): 32 µg/mL
MIC, antibiotic B in combination with A ([14]; in combination with Cefsulodin-Na 2 mcg/ml): 4 µg/mL
